Test results taken from EP4549436A1, “NOVEL INDENONE DERIVATIVES AND USES THEREOF” (Amyloid Solution Inc., priority 2022, dated 2024).

What was measured:
[1] = system: Tau-RD3 (Tau repeat domain 3); experiment: Tau disaggregation test by thioflavin-T assay; format: biochemical; settings: 35 µM Tau-RD3 aggregated 24 hours at 37 °C, then compound 0-500 µM for 48 hours; concentration disaggregating 50 % compared to the control
Description: (§1) Each compound was dissolved in DMSO to a concentration of 10 mM. Subsequently, the compound was diluted with 6 % DMSO (in DW) and used.
(§2) Specifically, amyloid-beta and tau solutions were prepared by dissolving Aβ1-42 or Tau-RD3 (Tau repeat domain 3) monomer in DMSO to a concentration of 10 mM. Thereafter, each solution was diluted with DW to a concentration of 100 µM and stored on ice. Meanwhile, thioflavin-T was dissolved in 50 mM glycine buffer (pH 8.5) to a concentration of 5 mM. Thereafter, the resulting solution was diluted with 50 mM glycine buffer (pH 8.5) to a concentration of 5 µM and stored in a dark room while light was blocked.
(§3) Each of the amyloid-beta and tau solutions prepared according to Experimental Example 1.1 was added to a 1.5 mL microcentrifuge tube to a concentration of 50 µM or 35 µM, and then a reaction was allowed to occur therebetween at 37 °C for 24 hours. Each of the 1.5 mL microcentrifuge tubes in which amyloid-beta aggregation and tau aggregation had been completed was treated with each compound at a concentrated of 500 µM to 0 µM through serial dilution, and then a further reaction was allowed to occur therebetween at 37 °C for 48 hours. 25 µL of the reaction solution in which the reaction had been completed was added to each well of a 96-well plate for fluorescence analysis, and 75µL of the previously prepared thioflavin-T solution was added to each well. After a reaction was allowed to occur at room temperature in the dark for 5 minutes, fluorescence values were measured at excitation 450 nm and emission 485 nm by using a multi-mode microplate reader.
(§4) The fluorescence value of a group (control) treated with amyloid-beta or tau alone, followed by aggregation for 72 hours was converted into a percentage value and expressed as 100, and amyloid-beta and tau aggregates, in which aggregation had been completed upon reaction for 24 hours, were treated with each compound at each concentration and a further reaction was allowed to occur therebetween for 48 hours, and then fluorescence values thereof were measured and converted into relative values. […]

[2] = system: Aβ1-42; experiment: Amyloid-beta (Aβ) disaggregation test by thioflavin-T assay; format: biochemical; settings: 50 µM Aβ1-42 aggregated 24 hours at 37 °C, then compound 0-500 µM for 48 hours; concentration disaggregating 50 % compared to the control
Description: as §1, §2, §3, §4

“2-(4-methoxyphenyl)-3-(5-methylthiazol-4-yl)-6-(2-phenoxyethoxy)-1H-inden-1-one [Compound 21]” showed an EC50 [1] of 173 µM and an EC50 [2] of 5.2 µM.

Substance “6-(2-(4-methoxyphenoxy)ethoxy)-3-(5-methylthiazol-4-yl)-2-(4-(trifluoromethyl)phenyl)-1H-inden-1-one [Compound 32]” has an EC50 [1] greater than 500 µM and an EC50 [2] of 161 µM.

Work on “6-(3-phenylpropoxy)-3-(1H-pyrazol-3-yl)-2-(pyridin-3-yl)-1H-inden-1-one [Compound 7]” yielded an EC50 [1] of 133 µM and an EC50 [2] of 194 µM.
